According to US20240116985A1, “STAPLED PEPTIDES AND METHODS THEREOF” (priority 2020, published 2024):
Read-outs that look alike come from different tables or passages of the source.

Columns and labels:
[1] = target: T1, full-length beta-Catenin (Uniprot ID P35222) (Homo sapiens, UniProt P35222); assay: Fluorescence polarization IC50 (beta-catenin / 5FAM-TCF4 10-53 competition); assay type: binding; settings: fluorescence polarization; read-out: beta-Catenin FP IC50
T1 construct: 10 nM full-length beta-Catenin (Uniprot ID P35222)
T1 sequence (P35222 1-781): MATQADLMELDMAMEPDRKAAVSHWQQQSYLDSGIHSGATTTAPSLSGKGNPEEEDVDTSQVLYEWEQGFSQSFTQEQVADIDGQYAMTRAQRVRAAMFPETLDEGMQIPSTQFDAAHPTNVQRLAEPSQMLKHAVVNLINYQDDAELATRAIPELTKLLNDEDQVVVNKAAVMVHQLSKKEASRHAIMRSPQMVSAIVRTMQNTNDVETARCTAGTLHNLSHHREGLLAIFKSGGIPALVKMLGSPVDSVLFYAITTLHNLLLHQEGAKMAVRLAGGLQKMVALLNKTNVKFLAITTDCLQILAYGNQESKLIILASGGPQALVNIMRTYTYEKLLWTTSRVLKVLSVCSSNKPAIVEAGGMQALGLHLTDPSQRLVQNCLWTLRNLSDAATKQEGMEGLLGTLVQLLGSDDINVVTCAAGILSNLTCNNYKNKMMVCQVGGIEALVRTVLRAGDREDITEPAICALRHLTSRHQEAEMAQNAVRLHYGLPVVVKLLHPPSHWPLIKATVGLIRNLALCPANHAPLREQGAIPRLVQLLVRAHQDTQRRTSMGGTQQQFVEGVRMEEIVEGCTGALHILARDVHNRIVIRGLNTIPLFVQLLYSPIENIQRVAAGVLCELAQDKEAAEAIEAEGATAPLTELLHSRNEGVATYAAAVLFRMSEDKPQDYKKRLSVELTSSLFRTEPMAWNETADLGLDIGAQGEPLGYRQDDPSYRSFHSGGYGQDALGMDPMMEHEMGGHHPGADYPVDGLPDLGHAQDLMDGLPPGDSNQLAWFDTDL

[2] = target: T2, beta-catenin/TCF4 engagement (Homo sapiens, UniProt P35222); assay: Nano-BRET target engagement assay (B-cat-Halo & TCF4-Luc in HEK293 cells); assay type: cell-based; settings: read-out: NanoBRET Abs IC50
T2 construct: expressed in transfected cells; host or cells: HEK293
T2 sequence (P35222 1-781): T1 sequence (P35222 1-781)

For `CC(=O)N1CCC[C@]12CC=CCCCC1(CCCC=CCCCOC(=O)N3CC[C@@](C(=O)N[C@@H](Cc4ccsc4)C(=O)N[C@@H](Cc4csc5ccccc45)C(=O)N[C@@H](CCC(N)=O)C(N)=O)(C3)NC(=O)[C@H](CC(N)=O)NC(=O)[C@H](Cc3ccccc3)NC(=O)[C@H](C)NC(=O)[C@H](C)NC(=O)[C@H](CN(C)CC(=O)O)NC(=O)[C@H](CC(=O)O)NC1=O)NC(=O)[C@H](CC(C)(C)C)NC(=O)[C@H](CC(=O)O)NC2=O` (stereo partly drawn) [I-1636, Ac-PL3-Asp-Npg-B5-Asp-[Me]GA-Ala-Ala-Phe-Asn-PyrS2-3Thi-BztA-Gln-NH2], the IC50 [1] was 0.017 µM and the IC50 ([2]; absolute IC50) was over 20 µM.
For `CC(=O)N1CCC[C@]12CC=CCCCC1(CCCC=CCCCOC(=O)N3CC[C@@](C(=O)N[C@@H](Cc4ccccc4)C(=O)N[C@@H](Cc4csc5ccccc45)C(=O)N[C@@H](CCO)C(N)=O)(C3)NC(=O)[C@H](CCCCNC(C)C)NC(=O)[C@H](Cc3ccccc3)NC(=O)[C@H](C)NC(=O)[C@H](CCCCNC(C)C)NC(=O)[C@H](CCC(N)=O)NC(=O)[C@H](CC(=O)O)NC1=O)NC(=O)[C@H](CC1CCCCC1)NC(=O)[C@H](CC(N)=O)NC2=O` (stereo partly drawn) [I-2102, Ac-PL3-Asn-Cha-B5-Asp-Gln-iPrLys-Ala-Phe-iPrLys-PyrS2-Phe-BztA-Hse-NH2], the IC50 [1] was 0.273 µM and the IC50 [2] was over 20 µM.
`CCN(CC(=O)O)C[C@@H]1NC(=O)[C@H](CC(=O)O)NC(=O)C2(CCCC=CCCCCCC[C@@](C)(C(=O)N[C@@H](Cc3ccsc3)C(=O)N[C@@H](Cc3csc4ccccc34)C(=O)N[C@@H](CCC(N)=O)C(N)=O)NC(=O)[C@H](CC(N)=O)NC(=O)[C@H](Cc3ccccc3)NC(=O)[C@H](C)NC(=O)[C@H](C)NC1=O)CCCC=CC[C@]1(CCCN1C(C)=O)C(=O)N[C@@H](CC(=O)O)C(=O)N[C@@H](CC(C)(C)C)C(=O)N2` (stereo partly drawn) [I-1628, Ac-PL3-Asp-Npg-B5-Asp-[Et]GA-Ala-Ala-Phe-Asn-S8-3Thi-BztA-Gln-NH2] was tested, and the IC50 [1] was 0.018 µM and the IC50 ([2]; absolute IC50) was over 20 µM.
In the case of `CC(=O)N1CCC[C@]12CC=CCCCC1(CCCC=CCCCOC(=O)N3CC[C@@](C(=O)N[C@@H](Cc4ccsc4)C(=O)N[C@@H](Cc4csc5ccccc45)C(=O)N[C@@H](CCC(N)=O)C(N)=O)(C3)NC(=O)[C@H](CC(C)C)NC(=O)[C@H](Cc3ccccc3)NC(=O)[C@H](C)NC(=O)[C@H](C)NC(=O)[C@H](CN(CC(=O)O)C(=O)C3CCN(C)CC3)NC(=O)[C@H](CC(=O)O)NC1=O)NC(=O)[C@H](CC(C)(C)C)NC(=O)[C@H](CC(=O)O)NC2=O` (stereo partly drawn) [I-2235, Ac-PL3-Asp-Npg-B5-Asp-[4AcMePip]GA-Ala-Ala-Phe-Leu-PyrS2-3Thi-BztA-Gln-NH2], the IC50 [1] is reported as 0.04 µM and the IC50 ([2]; absolute IC50) is reported as over 20 µM.
For `CC(=O)N1CCC[C@]12CC=CCCCC1(CCCC=CCCCOC(=O)N3CC[C@@](C(=O)N[C@@H](Cc4ccccc4C(F)(F)F)C(=O)N[C@@H](Cc4csc5ccccc45)C(=O)N[C@@H](C)C(N)=O)(C3)NC(=O)[C@H](CC(C)C)NC(=O)[C@H](Cc3ccccc3)NC(=O)[C@@H](C)NC(=O)[C@H](C)NC(=O)[C@H](Cc3cccc(C(=O)O)c3)NC(=O)[C@H](CC(=O)O)NC1=O)NC(=O)[C@H](CC(C)(C)C)NC(=O)[C@H](CC(=O)O)NC2=O` (stereo partly drawn) [I-2098, Ac-PL3-Asp-Npg-B5-Asp-3COOHF-Ala-dAla-Phe-Leu-PyrS2-2F3MeF-BztA-Ala-NH2], the IC50 [1] was 0.26 µM and the IC50 [2] was over 20 µM.
With `CC(=O)N1CCC[C@]12CC=CCCCC1(CCCC=CCCCCCC[C@@](C)(C(=O)N[C@@H](Cc3ccccc3)C(=O)N[C@@H](Cc3csc4ccccc34)C(=O)N[C@@H](CCC(N)=O)C(N)=O)NC(=O)[C@H](CCO)NC(=O)[C@H](Cc3ccccc3)NC(=O)[C@H](C)NC(=O)[C@H](C)NC(=O)[C@H](CCC(=O)O)NC(=O)[C@H](CC(=O)O)NC1=O)NC(=O)[C@H](CO)NC(=O)[C@H](CC(=O)O)NC2=O` (stereo partly drawn) [I-1530, Ac-PL3-Asp-Ser-B5-Asp-Glu-Ala-Ala-Phe-Hse-S8-Phe-BztA-Gln-NH2] the IC50 [1] was 0.061 µM and the IC50 ([2]; absolute IC50) was 36.9 µM.
Work on `CC(=O)N1CCC[C@]12CC=CCCCC1(CCCC=CCCCOC(=O)N3CC[C@@](C(=O)N[C@@H](Cc4ccsc4)C(=O)N[C@@H](Cc4csc5ccccc45)C(=O)N[C@@H](CCC(N)=O)C(N)=O)(C3)NC(=O)[C@H](CC(C)C)NC(=O)[C@H](Cc3ccccc3)NC(=O)[C@H](C)NC(=O)[C@H](C)NC(=O)[C@H](CN(CC(=O)O)Cc3ccccc3)NC(=O)[C@H](CC(=O)O)NC1=O)NC(=O)[C@H](CC(C)(C)C)NC(=O)[C@H](CC(=O)O)NC2=O` (stereo partly drawn) [I-1630, Ac-PL3-Asp-Npg-B5-Asp-[Bn]GA-Ala-Ala-Phe-Leu-PyrS2-3Thi-BztA-Gln-NH2] yielded an IC50 [1] of 0.0115 µM and an IC50 ([2]; absolute IC50) of 5 µM.
With `CCCC[C@@H]1NC(=O)[C@H](CC(=O)O)NC(=O)[C@]2(CC=CCCCC3(CCCC=CCCCOC(=O)N4CC[C@@](C(=O)N[C@@H](Cc5ccsc5)C(=O)N[C@@H](Cc5csc6ccccc56)C(=O)N[C@@H](CCC(N)=O)C(N)=O)(C4)NC(=O)[C@H](CC(C)C)NC(=O)[C@H](Cc4ccccc4)NC(=O)[C@H](C)NC(=O)[C@H](C)NC(=O)[C@H](CN(CC(=O)O)CC(F)(F)F)NC(=O)[C@H](CC(=O)O)NC3=O)NC1=O)CCCN2C(C)=O` (stereo partly drawn) [I-1777, Ac-PL3-Asp-nLeu-B5-Asp-TfeGA-Ala-Ala-Phe-Leu-PyrS2-3Thi-BztA-Gln-NH2] the IC50 [1] was 0.008 µM and the IC50 ([2]; absolute IC50) was 8.7 µM.
`CC(=O)N1CCC[C@]12CC=CCCCC1(CCCC=CCCCCCC[C@@](C)(C(=O)N[C@@H](Cc3ccccc3)C(=O)N[C@@H](Cc3csc4ccccc34)C(=O)N[C@@H](CCC(N)=O)C(N)=O)NC(=O)[C@H](CCC(N)=O)NC(=O)[C@H](Cc3ccccc3)NC(=O)[C@H](C)NC(=O)[C@H](C)NC(=O)[C@H](CCC(=O)O)NC(=O)[C@H](CC(=O)O)NC1=O)NC(=O)[C@H](CC(C)C)NC(=O)[C@H](CC(=O)O)NC2=O` (stereo partly drawn) [I-1458, Ac-PL3-Asp-Leu-B5-Asp-Glu-Ala-Ala-Phe-Gln-S8-Phe-BztA-Gln-NH2] showed an IC50 [1] of 0.026 µM and an IC50 ([2]; absolute IC50) of 18.1 µM.
With `CC(=O)N1CCC[C@]12CC=CCCCC1(CCCC=CCCCOC(=O)N3CC[C@@](C(=O)N[C@@H](Cc4ccsc4)C(=O)N[C@@H](Cc4csc5ccccc45)C(=O)N[C@H](C(N)=O)C(C)C)(C3)NC(=O)[C@H](CC(C)C)NC(=O)[C@H](Cc3ccccc3)NC(=O)[C@H](C)NC(=O)[C@H](CCCCNC(C)C)NC(=O)[C@H](CN(CC(=O)O)CC(F)(F)F)NC(=O)[C@H](CC(=O)O)NC1=O)NC(=O)[C@H](CC(C)(C)C)NC(=O)[C@H](CC(=O)O)NC2=O` (stereo partly drawn) [I-1763, Ac-PL3-Asp-Npg-B5-Asp-TfeGA-iPrLys-Ala-Phe-Leu-PyrS2-3Thi-BztA-Val-NH2] the IC50 [1] was 0.052 µM and the IC50 ([2]; absolute IC50) was over 20 µM.
Work on `CC(=O)N1CCC[C@]12CC=CCCCC1(CCCC=CCCCOC(=O)N3CC[C@@](C(=O)N[C@@H](Cc4ccsc4)C(=O)N[C@@H](Cc4csc5ccccc45)C(=O)N[C@@H](CCC(=O)N4CCN(CCCN(C)C)CC4)C(N)=O)(C3)NC(=O)[C@H](CC(C)C)NC(=O)[C@H](Cc3ccccc3)NC(=O)[C@H](C)NC(=O)[C@H](C)NC(=O)[C@H](CN(CC(=O)O)CC(F)(F)F)NC(=O)[C@H](CC(=O)O)NC1=O)NC(=O)[C@H](CC(C)(C)C)NC(=O)[C@H](CC(=O)O)NC2=O` (stereo partly drawn) [I-1800, Ac-PL3-Asp-Npg-B5-Asp-TfeGA-Ala-Ala-Phe-Leu-PyrS2-3Thi-BztA-[Me2NPrPip]GlnR-NH2] yielded an IC50 [1] of 0.013 µM and an IC50 ([2]; absolute IC50) of 25.2 µM.
`CC(=O)N1CCC[C@]12CC=CCCCC1(CCCC=CCCCOC(=O)N3CC[C@@](C(=O)N[C@@H](Cc4ccccc4C(F)(F)F)C(=O)N[C@@H](Cc4csc5ccccc45)C(=O)N[C@@H](CCC(=O)N4CCOCC4)C(N)=O)(C3)NC(=O)[C@H](CCC(=O)N(C)C)NC(=O)[C@H](Cc3ccccc3)NC(=O)[C@H](C)NC(=O)[C@H](C)NC(=O)[C@H](Cc3cccc(C(=O)O)c3)NC(=O)[C@H](CC(=O)O)NC1=O)NC(=O)[C@H](CC(C)(C)C)NC(=O)[C@H](CC(=O)O)NC2=O` (stereo partly drawn) [I-2544, Ac-PL3-Asp-Npg-B5-Asp-3COOHF-Ala-Ala-Phe-Me2Gln-PyrS2-2F3MeF-BztA-MorphGln-NH2] was tested, and the IC50 [1] was 0.011 µM and the IC50 ([2]; absolute IC50) was 4.1 µM.
In the case of `CC(=O)N1CCC[C@]12CC=CCCCC1(CCCC=CCCCCCC[C@@](C)(C(=O)N[C@@H](Cc3ccccc3)C(=O)N[C@@H](Cc3csc4ccccc34)C(=O)N[C@@H](CCC(N)=O)C(N)=O)NC(=O)[C@H](CCO)NC(=O)[C@H](Cc3ccccc3)NC(=O)[C@H](C)NC(=O)[C@H](C)NC(=O)[C@H](CCC(=O)O)NC(=O)[C@H](CC(=O)O)NC1=O)NC(=O)[C@H](CC(N)=O)NC(=O)[C@H](CC(=O)O)NC2=O` (stereo partly drawn) [I-1534, Ac-PL3-Asp-Asn-B5-Asp-Glu-Ala-Ala-Phe-Hse-S8-Phe-BztA-Gln-NH2], the IC50 [1] is reported as 0.181 µM and the IC50 ([2]; absolute IC50) is reported as over 20 µM.
